From patent publication US9198902B2, “1,4-dihydropyridine-3,5-dicarboxylate derivatives and preparation and use thereof” (Xuanzhu Pharma Co., Ltd., priority 2011, dated 2015) come the findings set out here.

The subject of experiment [1] is SHRs (spontaneous hypertensive rats). As to the kind of experiment: In vivo hypotensive activity in SHRs, tail-pinch method. The conditions noted are these: male SHRs, 10 mg/kg po; for Max ΔMAP (mmHg ± SEM): measured 1-24 h after administration. As to the method: The in vivo hypotensive activity assay was conducted according to the tail-pinch method with reference to Folia pharmacol. Japon. 97, 115-126 (1991).
The agents to be tested, lercanidipine, barnidipine, amlodipine, azelnidipine, efonidipine and manidipine, were accurately weighed respectively. Each agent was dissolved in DMSO. To the resulting solution was added 50% of the corresponding volume of PEG400 so that the final concentration of each agent was 1 mg/ml, and the final concentration of DMSO was 3%.
The compounds to be tested, Compound 18, Compound 21, Compound 22, Compound 23, and Compound 26, were accurately weighed respectively. Each compound was dissolved in DMSO. To the resulting solution was added 50% of the corresponding volume of PEG400 so that the final concentration of each compound was 1 mg/ml, and the final concentration of DMSO was 3%.
The compounds to be tested, Compound 19 and Compound 20, were accurately weighed respectively. Each compound was suspended in 0.5% MC so that the final concentration of each compound was 1 mg/ml.
The test for hypotensive effect: Male SHRs (spontaneous hypertensive rats) were randomly allocated into a control group and an administration group. The administration was an intragastric administration. One hour before the administration, the measured blood pressure was used as the pre-administration basic blood pressure value. After the administration, the contractive pressure, the heart rate and the mean arterial pressure of SHRs at six time points, i.e. 1, 2, 4, 6, 8 and 24 hours after the administration, were measured with a Softron BP-98A non-invasive blood pressure instrument respectively.

The target in experiment [2] is L-type calcium ion channels (Cavia porcellus, UniProt O35505). As to the kind of experiment: L-type calcium ion channel inhibition, whole cell patch-clamp (electrophysiological method). The conditions noted are these: left ventricle muscle cells of guinea pigs, room temperature. It counts as cell-based. An excerpt:
2. Test for L- and T-Type Calcium Ion Channel Inhibitors
This experiment was assigned to HD Biosciences Corporation (Shanghai) and conducted with an electrophysiological method.
It was done with reference to the method as disclosed by Jung-Ha Lee, et. al., “Identification of T-Type α1H Ca^2+ Channels (Cav3.2) in Major Pelvic Ganglion Neurons”. J Neurophysiol 87:2844-2850, 2002.
Test samples were weighed accurately and diluted in a 3-fold stepwise dilution so that the final concentrations were as follows:
L-type test: Left ventricle muscle cells were separated from guinea pigs. The cells were used in the experiment in eight hours. The ionic current of a single cell was recorded by applying the whole cell patch-clamp technique at room temperature, wherein the clamp current was −80 mV, and the pulse interval was 10 s. The inward current (the activiation was started from 0 mV) is the L-type calcium current (ICa,L).
The electrode inner liquid (mM): CsCl 120, TEA-Cl 20, CaCl2 1, EGTA-CsOH 11, Hepes 10, Mg-ATP 5, pH7.3;
The electrode outer liquid (mM): NaCl 135, CsCl 5.4, CaCl2 1.8, MgCl2 1, Hepes 5, glucose 10, pH7.4.
On the technique in general: In patch-clamp work, channel activity is measured electrically.

The test system of experiment [3] is SHRs. As to the kind of experiment: In vivo hypotensive activity in SHRs, DSI implant-type remote blood pressure measurement. Set-up: species or system rats. Particulars: male SHRs, 10 mg/kg po, monitored 24 hours. As to the method:
The in vivo hypotensive activity assay was conducted according to DSI experimental procedure with reference to page 56 of WO 2009/056934 A1. The agents to be tested, lercanidipine, barnidipine, amlodipine, azelnidipine, efonidipine and manidipine, were accurately weighed. Each agent was dissolved in DMSO. To the resulting solution was added 50% of the corresponding volume of PEG400 so that the final concentration of each agent was 1 mg/ml, and the final concentration of DMSO was 3%. […] Each compound was dissolved in DMSO. […] The compound to be tested, Compound 15, was accurately weighed. This compound was dissolved in DMSO. […] The compound to be tested, Compound 16 (optical activity)+108.34° and Compound 17 (optical activity optical activity)+36.4°, were accurately weighed. […] The test for hypotensive effect: Male SHRs were subjected to an abdominal aorta implantation using an implant, and used in the test after 7-10 days of recovery. The administration was an intragastric administration. One hour before the administration, the measured blood pressure was used as the pre-administration basic blood pressure value. After the administration, SHRs, allowed free access to the diet, were continuously monitored with a DSI implant-type blood pressure remote measurement system for 24 hours.

Experiment [4] concerns the target Human Cav3.2 (Homo sapiens, UniProt O95180). Put plainly: T-type calcium ion channel inhibition, FLIPR method. The conditions noted are these: Human Cav3.2 in stable HEK-293 cells, FLIPR Calcium 4 No-Wash kit. It counts as cell-based. As to the method:
T-type tests for Compound 19 and Compound 20 were assigned to Chan Test Corporation, and conducted according to the FLIPR experimental procedure as follows.
It was done with reference to the method disclosed on page 48 of WO 2009/056934 A1.
Samples were weighed accurately and diluted in a 3-fold stepwise dilution so that the final concentrations were as follows: 100 μM, 30 μM, 10 μM, 3 μM, 1 μM, 0.3 μM, 0.1 μM, 0.03 μM, 0.01 μM, 0.003 μM.
T-type test: Human Cav3.2 was cloned in stable HEK-293 cells, and then the operation was conducted with FLIPR Calcium 4 No-Wash kit. The cell medium was removed. To an HEPES solution free of calcium ion was added 20 μL dye to dye for 30 minutes at a temperature of 37° C. This buffer free of calcium ion included NaCl, 137 mM; KCl, 0.5 mM; MgCl2 mM, 1 mM; HEPES, 10 mM; glucose, 10 mM. The pH value was adjusted to 7.4 with NaOH. After 30 minutes, the buffer was placed at room temperature for 30 minutes. Then 5 μL of compound to be tested, solvent or blank control were added. The compound was formulated with a buffer containing calcium ion, said buffer including KCl, 135 mM; CaCl2, 10.8 mM; MgCl2, 1 mM; HEPES, 10 mM; glucose, 10 mM. The collected fluorescence values were analyzed and the inhibition ratios were calculated.

Chain of L-type calcium ion channels (O35505 whole entry): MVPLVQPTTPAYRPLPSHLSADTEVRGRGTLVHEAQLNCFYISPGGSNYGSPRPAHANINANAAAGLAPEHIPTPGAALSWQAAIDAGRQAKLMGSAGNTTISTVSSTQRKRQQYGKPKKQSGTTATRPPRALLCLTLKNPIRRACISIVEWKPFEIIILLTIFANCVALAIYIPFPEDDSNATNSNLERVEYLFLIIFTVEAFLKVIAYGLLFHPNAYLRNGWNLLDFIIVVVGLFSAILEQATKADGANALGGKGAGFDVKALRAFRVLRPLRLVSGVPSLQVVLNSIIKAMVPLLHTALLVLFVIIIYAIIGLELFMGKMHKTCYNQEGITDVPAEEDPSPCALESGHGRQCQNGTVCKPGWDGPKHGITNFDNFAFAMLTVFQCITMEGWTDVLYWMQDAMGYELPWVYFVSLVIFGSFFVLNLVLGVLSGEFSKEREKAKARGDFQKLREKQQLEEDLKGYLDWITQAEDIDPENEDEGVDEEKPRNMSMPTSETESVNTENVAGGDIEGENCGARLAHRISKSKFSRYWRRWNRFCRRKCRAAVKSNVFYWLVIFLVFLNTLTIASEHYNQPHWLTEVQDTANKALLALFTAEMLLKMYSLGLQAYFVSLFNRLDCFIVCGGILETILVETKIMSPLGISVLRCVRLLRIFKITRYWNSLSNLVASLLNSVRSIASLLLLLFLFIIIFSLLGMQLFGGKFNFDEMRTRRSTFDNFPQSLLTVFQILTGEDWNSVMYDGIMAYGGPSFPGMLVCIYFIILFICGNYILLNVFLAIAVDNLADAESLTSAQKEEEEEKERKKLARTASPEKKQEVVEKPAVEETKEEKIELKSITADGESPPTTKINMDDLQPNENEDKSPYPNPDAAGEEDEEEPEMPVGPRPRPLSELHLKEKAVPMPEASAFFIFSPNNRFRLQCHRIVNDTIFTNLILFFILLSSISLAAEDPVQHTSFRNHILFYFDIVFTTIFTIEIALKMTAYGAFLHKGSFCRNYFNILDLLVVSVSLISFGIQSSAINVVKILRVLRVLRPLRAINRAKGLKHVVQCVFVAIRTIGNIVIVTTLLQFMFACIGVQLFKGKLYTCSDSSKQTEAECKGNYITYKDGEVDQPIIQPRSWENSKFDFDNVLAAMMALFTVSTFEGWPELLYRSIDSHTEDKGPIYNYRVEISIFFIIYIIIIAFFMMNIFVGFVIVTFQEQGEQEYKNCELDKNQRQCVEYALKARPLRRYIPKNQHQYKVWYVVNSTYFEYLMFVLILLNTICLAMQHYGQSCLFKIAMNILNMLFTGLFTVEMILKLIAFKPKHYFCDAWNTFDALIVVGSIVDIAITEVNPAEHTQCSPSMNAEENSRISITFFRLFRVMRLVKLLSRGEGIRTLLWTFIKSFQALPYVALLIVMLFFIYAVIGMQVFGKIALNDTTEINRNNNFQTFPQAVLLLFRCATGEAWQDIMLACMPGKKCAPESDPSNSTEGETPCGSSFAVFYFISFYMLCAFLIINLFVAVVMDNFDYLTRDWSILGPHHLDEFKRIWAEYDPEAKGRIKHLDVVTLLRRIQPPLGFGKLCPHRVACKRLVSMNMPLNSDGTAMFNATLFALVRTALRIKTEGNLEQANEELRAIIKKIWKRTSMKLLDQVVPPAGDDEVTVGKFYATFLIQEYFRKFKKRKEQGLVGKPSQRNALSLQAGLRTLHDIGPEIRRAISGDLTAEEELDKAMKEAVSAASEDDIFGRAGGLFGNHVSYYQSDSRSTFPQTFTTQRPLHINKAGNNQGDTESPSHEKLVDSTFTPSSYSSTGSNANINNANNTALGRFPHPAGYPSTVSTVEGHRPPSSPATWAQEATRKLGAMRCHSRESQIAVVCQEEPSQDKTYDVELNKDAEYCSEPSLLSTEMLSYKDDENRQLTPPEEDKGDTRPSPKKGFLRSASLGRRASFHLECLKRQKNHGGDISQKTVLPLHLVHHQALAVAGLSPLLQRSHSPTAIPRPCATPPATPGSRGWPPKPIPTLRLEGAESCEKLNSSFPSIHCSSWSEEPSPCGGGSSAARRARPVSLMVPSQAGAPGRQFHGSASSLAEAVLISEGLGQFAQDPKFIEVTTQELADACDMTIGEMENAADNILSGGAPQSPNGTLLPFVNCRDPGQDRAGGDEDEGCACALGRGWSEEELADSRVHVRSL
Chain of Human Cav3.2 (O95180 whole entry): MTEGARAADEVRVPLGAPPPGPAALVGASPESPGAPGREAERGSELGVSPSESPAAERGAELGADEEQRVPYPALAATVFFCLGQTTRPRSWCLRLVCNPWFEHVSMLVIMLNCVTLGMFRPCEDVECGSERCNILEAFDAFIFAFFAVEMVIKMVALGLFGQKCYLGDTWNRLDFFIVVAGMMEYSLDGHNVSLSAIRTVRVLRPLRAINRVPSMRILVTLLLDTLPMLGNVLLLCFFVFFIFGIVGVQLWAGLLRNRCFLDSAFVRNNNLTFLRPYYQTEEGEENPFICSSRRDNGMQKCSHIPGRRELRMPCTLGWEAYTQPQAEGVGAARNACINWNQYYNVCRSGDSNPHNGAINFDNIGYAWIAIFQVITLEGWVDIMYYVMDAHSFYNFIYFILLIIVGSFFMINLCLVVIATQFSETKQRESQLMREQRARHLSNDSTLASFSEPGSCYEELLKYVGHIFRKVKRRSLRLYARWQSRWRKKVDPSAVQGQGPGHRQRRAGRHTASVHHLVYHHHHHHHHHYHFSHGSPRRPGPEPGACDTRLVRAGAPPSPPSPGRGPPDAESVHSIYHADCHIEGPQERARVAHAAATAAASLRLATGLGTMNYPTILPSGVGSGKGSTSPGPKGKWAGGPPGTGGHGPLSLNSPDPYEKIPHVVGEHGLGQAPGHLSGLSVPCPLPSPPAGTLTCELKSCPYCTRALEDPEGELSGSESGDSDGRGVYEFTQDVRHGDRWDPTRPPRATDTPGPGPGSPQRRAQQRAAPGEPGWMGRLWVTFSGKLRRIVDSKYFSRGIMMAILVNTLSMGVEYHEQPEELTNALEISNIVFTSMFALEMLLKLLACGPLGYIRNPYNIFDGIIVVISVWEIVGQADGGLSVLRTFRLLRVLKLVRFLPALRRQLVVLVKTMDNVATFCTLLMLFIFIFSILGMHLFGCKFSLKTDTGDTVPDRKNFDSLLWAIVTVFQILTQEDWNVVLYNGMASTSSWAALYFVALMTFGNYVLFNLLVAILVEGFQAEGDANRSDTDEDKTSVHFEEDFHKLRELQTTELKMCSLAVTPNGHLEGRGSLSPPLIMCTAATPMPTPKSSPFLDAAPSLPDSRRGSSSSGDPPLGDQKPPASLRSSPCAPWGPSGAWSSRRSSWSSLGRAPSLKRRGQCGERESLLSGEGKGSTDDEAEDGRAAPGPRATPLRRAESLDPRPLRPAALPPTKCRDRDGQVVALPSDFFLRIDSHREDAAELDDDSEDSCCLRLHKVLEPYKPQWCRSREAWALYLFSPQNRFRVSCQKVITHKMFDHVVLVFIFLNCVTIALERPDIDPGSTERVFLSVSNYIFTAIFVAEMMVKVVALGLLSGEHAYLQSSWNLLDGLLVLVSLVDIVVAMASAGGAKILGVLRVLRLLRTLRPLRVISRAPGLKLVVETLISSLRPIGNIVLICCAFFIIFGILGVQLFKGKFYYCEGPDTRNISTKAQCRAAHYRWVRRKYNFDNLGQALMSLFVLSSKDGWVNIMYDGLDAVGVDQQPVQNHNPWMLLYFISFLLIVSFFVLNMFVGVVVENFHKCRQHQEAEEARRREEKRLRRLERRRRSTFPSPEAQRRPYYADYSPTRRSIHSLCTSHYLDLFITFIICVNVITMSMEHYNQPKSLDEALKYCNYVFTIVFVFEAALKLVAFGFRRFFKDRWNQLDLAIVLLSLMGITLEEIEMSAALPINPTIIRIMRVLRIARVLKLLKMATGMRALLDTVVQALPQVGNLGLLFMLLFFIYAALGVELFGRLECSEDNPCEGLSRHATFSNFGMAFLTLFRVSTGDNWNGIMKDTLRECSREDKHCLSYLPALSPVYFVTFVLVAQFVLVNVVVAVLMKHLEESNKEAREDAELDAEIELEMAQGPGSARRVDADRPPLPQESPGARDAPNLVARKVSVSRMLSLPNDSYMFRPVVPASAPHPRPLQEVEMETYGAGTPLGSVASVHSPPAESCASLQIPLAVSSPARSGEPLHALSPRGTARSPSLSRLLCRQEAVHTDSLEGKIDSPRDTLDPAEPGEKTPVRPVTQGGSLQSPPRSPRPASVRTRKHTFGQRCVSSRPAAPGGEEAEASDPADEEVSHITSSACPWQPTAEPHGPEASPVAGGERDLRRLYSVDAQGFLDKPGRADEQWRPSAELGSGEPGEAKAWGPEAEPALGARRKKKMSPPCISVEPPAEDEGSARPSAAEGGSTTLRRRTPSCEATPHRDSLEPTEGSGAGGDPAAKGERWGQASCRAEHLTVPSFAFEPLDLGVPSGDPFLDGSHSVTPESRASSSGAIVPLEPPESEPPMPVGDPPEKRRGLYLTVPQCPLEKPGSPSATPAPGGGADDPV

Consider `COC(=O)C1=C(C)NC(C)=C(C(=O)OCCN2CCN(C(c3ccccc3)c3ccccc3)CC2)C1c1cccc([N+](=O)[O-])c1` (stereo not drawn) [manidipine, reference compound], for which, in experiment [1], the “ΔMAP > 20 (mmHg) Duration time of action” value is reported as 23 h and the “Max ΔMAP (mmHg ± SEM)” value came to 74 ± 5 mmHg.
Regarding `COC(=O)C1=C(C)NC(C)=C(C(=O)OC2(C)CCN(CCC(c3ccccc3)c3ccccc3)C2)[C@H]1c1cccc([N+](=O)[O-])c1` (stereo partly drawn) [Compound 15, (4S)-3-[1-(3,3-diphenylpropyl)-3-methylpyrrolidin-3-yl] 5-methyl 2,6-dimethyl-4-(3-nitrophenyl)-1,4-dihydropyridine-3,5-dicarboxylate], the IC50 in experiment [2] was determined as 1.28 µM. Further, in experiment [3], the “Max ΔMAP (mmHg ± SEM)” value was found to be 56 ± 1 mmHg and the “ΔMAP > 20 (mmHg) Duration time of action” value came to 14 h.
On to `COC(=O)C1=C(C)NC(C)=C(C(=O)OC2(C)CCN(CCC(c3ccccc3)c3ccccc3)C2)[C@@H]1c1cccc([N+](=O)[O-])c1` (stereo partly drawn) [Compound 14, (4R)-3-[1-(3,3-diphenylpropyl)-3-methylpyrrolidin-3-yl] 5-methyl 2,6-dimethyl-4-(3-nitrophenyl)-1,4-dihydropyridine-3,5-dicarboxylate], for which the IC50 in experiment [2] was 0.59 µM.
`COC(=O)C1=C(C)NC(C)=C(C(=O)OC2(C)CCN(CCCc3ccccc3)C2)[C@H]1c1cccc([N+](=O)[O-])c1` (stereo partly drawn) [Compound 21, (4S)-3-[3-methyl-1-(3-phenylpropyl)pyrrolidin-3-yl] 5-methyl 2,6-dimethyl-4-(3-nitrophenyl)-1,4-dihydropyridine-3,5-dicarboxylate]: in experiment [1], the “ΔMAP > 20 (mmHg) Duration time of action” value is given as 24 h and the “Max ΔMAP (mmHg ± SEM)” value stood at 28 ± 12 mmHg.
As for `COC(=O)C1=C(C)NC(C)=C(C(=O)OC2(C)CCN(C(c3ccccc3)c3ccccc3)C2)[C@H]1c1cccc([N+](=O)[O-])c1` (stereo partly drawn) [Compound 26, (4S)-3-[1-diphenylmethyl-3-methylpyrrolidin-3-yl]5-methyl 2,6-dimethyl-4-(3-nitrophenyl)-1,4-dihydropyridine-3,5-dicarboxylate], in experiment [1], the “ΔMAP > 20 (mmHg) Duration time of action” value turned out to be 24 h and the “Max ΔMAP (mmHg ± SEM)” value was 55 ± 13 mmHg.
In the case of `COC(=O)C1=C(C)NC(C)=C(C(=O)O[C@@]2(C)CCN(CC(c3ccccc3)c3ccccc3)C2)[C@H]1c1cccc([N+](=O)[O-])c1` [Compound 20, (S)-3-[(S)-1-(2,2-diphenylethyl)-3-methylpyrrolidin-3-yl] 5-methyl 2,6-dimethyl-4-(3-nitrophenyl)-1,4-dihydropyridine-3,5-dicarboxylate], the 50% inhibitory concentration (IC50) in experiment [4] was 66.9 µM. Also, in experiment [1], the “ΔMAP > 20 (mmHg) Duration time of action” value was determined as 24 h and the “Max ΔMAP (mmHg ± SEM)” value was 80 ± 14 mmHg.
`COC(=O)C1=C(C)NC(C)=C(C(=O)OC2(C)CCN(Cc3ccccc3)C2)C1c1cccc([N+](=O)[O-])c1` (stereo not drawn) [Compound 1, 3-(1-benzyl-3-methylpyrrolidin-3-yl) 5-methyl 2,6-dimethyl-4-(3-nitrophenyl)-1,4-dihydropyridine-3,5-dicarboxylate]: in experiment [3], the “Max ΔMAP (mmHg ± SEM)” value is given as 47 ± 7 mmHg and the “ΔMAP > 20 (mmHg) Duration time of action” value amounted to 6 h.
`COC(=O)C1=C(C)NC(C)=C(C(=O)OC2(C)CCN(CCC(c3ccccc3)c3ccccc3)C2)C1c1cccc([N+](=O)[O-])c1` (stereo not drawn) [Compound 2, 3-[1-(3,3-diphenylpropyl)-3-methylpyrrolidin-3-yl] 5-methyl 2,6-dimethyl-4-(3-nitrophenyl)-1,4-dihydropyridine-3,5-dicarboxylate]: in experiment [3], the “Max ΔMAP (mmHg ± SEM)” value came out at 53 ± 7 mmHg and the “ΔMAP > 20 (mmHg) Duration time of action” value was 16 h.
On to `COC(=O)C1=C(C)NC(C)=C(C(=O)OC2(C)CCN(Cc3cc(F)cc(F)c3)C2)[C@H]1c1cccc([N+](=O)[O-])c1` (stereo partly drawn) [Compound 23, (4S)-3-[1-(3,5-difluorobenzyl)-3-methylpyrrolidin-3-yl]5-methyl 2,6-dimethyl-4-(3-nitrophenyl)-1,4-dihydropyridine-3,5-dicarboxylate], for which, in experiment [1], the “ΔMAP > 20 (mmHg) Duration time of action” value was 24 h and the “Max ΔMAP (mmHg ± SEM)” value is 60 ± 12 mmHg.
The matching figures for `COC(=O)C1=C(C)NC(C)=C(C(=O)OC2(C)CCN(CC(c3ccccc3)c3ccccc3)C2)[C@H]1c1cccc([N+](=O)[O-])c1` (stereo partly drawn) [Compound 18, (4S)-3-[1-(2,2-diphenylethyl)-3-methylpyrrolidin-3-yl] 5-methyl 2,6-dimethyl-4-(3-nitrophenyl)-1,4-dihydropyridine-3,5-dicarboxylate]: 24 h and 69 ± 4 mmHg.
`CC1=C(C(=O)OC(C)C)C(c2cccc([N+](=O)[O-])c2)C(C(=O)OC2CN(C(c3ccccc3)c3ccccc3)C2)=C(N)N1` (stereo not drawn) [azelnidipine, reference compound]: in experiment [2], the IC50 was determined as 1.39 µM. The “ΔMAP > 20 (mmHg) Duration time of action” value in experiment [1] came out at 24 h; in experiment [3], 11 h. The “Max ΔMAP (mmHg ± SEM)” value turned out to be 79 ± 13 mmHg in experiment [1] and 40 ± 5 mmHg in experiment [3].
Turning to `COC(=O)C1=C(C)NC(C)=C(C(=O)OC2(C)CCN(CCc3ccccc3)C2)[C@H]1c1cccc([N+](=O)[O-])c1` (stereo partly drawn) [Compound 22, (4S)-3-(3-methyl-1-phenylethylpyrrolidin-3-yl) 5-methyl 2,6-dimethyl-4-(3-nitrophenyl)-1,4-dihydropyridine-3,5-dicarboxylate], in experiment [1], the “ΔMAP > 20 (mmHg) Duration time of action” value is recorded as 24 h and the “Max ΔMAP (mmHg ± SEM)” value came out at 43 ± 7 mmHg.
As for `CC1=C(C(=O)OCCN(Cc2ccccc2)c2ccccc2)C(c2cccc([N+](=O)[O-])c2)C(P2(=O)OCC(C)(C)CO2)=C(C)N1` (stereo not drawn) [efonidipine, reference compound], in experiment [1], the “ΔMAP > 20 (mmHg) Duration time of action” value turned out to be 10 h and the “Max ΔMAP (mmHg ± SEM)” value is 69 ± 5 mmHg.
In the case of `COC(=O)C1=C(C)NC(C)=C(C(=O)O[C@]2(C)CCN(CC(c3ccccc3)c3ccccc3)C2)[C@H]1c1cccc([N+](=O)[O-])c1` [Compound 19, (S)-3-[(R)-1-(2,2-diphenylethyl)-3-methylpyrrolidin-3-yl] 5-methyl 2,6-dimethyl-4-(3-nitrophenyl)-1,4-dihydropyridine-3,5-dicarboxylate], the IC50 in experiment [4] is 75.4 µM. In experiment [1], the “ΔMAP > 20 (mmHg) Duration time of action” value was determined as 24 h and the “Max ΔMAP (mmHg ± SEM)” value is reported as 72 ± 8 mmHg.

A word on the IC50: it is the midpoint of a concentration-inhibition curve.
